According to the NIST ThermoML archive (doi:10.1016/j.jct.2017.08.004):
± gives the expanded uncertainty stated by the source.

Conditions: 230 K; 101.33 kPa; Crystal; relaxation calorimetry

Row | molar entropy [J/K/mol] | Structure (SMILES)
1 | 173.95 ± 16 | OC[C@@H](O)[C@@H](O)[C@H](O)[C@H](O)CO [D-mannitol]
2 | 154.69 ± 14 | OC[C@H](O)C(O)[C@@H](O)CO [L-(-)-arabitol]
3 | 148.47 ± 14 | O[C@H]1[C@H](O)[C@@H](O)[C@H](O)[C@@H](O)[C@H]1O [cis-1,2,3,5-trans-4,6-cyclohexanehexol]
4 | 127.36 ± 12 | OC[C@@H](O)[C@@H](O)CO [meso-1,2,3,4-butanetetrol]

Same assay, conditions: 240 K; 101.33 kPa; Crystal; relaxation calorimetry

Row | Structure (SMILES) | molar entropy [J/K/mol]
5 | OC[C@@H](O)[C@@H](O)[C@H](O)[C@H](O)CO [D-mannitol] | 181.8 ± 17
6 | OC[C@H](O)C(O)[C@@H](O)CO [L-(-)-arabitol] | 161.65 ± 15
7 | O[C@H]1[C@H](O)[C@@H](O)[C@H](O)[C@@H](O)[C@H]1O [cis-1,2,3,5-trans-4,6-cyclohexanehexol] | 155.74 ± 14

More lines, now with the values ahead:

Row | molar entropy [J/K/mol] | Structure (SMILES)
8 | 160.23 ± 15 | OC[C@@H](O)C(O)[C@H](O)CO [D-arabitol]
9 | 133.01 ± 12 | OC[C@@H](O)[C@@H](O)CO [meso-1,2,3,4-butanetetrol]

Same assay, conditions: 250 K; 101.33 kPa; Crystal; relaxation calorimetry

Row | Structure (SMILES) | molar entropy [J/K/mol]
10 | OC[C@@H](O)[C@@H](O)[C@H](O)[C@H](O)CO [D-mannitol] | 189.63 ± 17
11 | OC[C@H](O)C(O)[C@@H](O)CO [L-(-)-arabitol] | 168.59 ± 15
12 | O[C@H]1[C@H](O)[C@@H](O)[C@H](O)[C@@H](O)[C@H]1O [cis-1,2,3,5-trans-4,6-cyclohexanehexol] | 163.02 ± 15

The remaining lines, values ahead:

Row | molar entropy [J/K/mol] | Structure (SMILES)
13 | 167.08 ± 15 | OC[C@@H](O)C(O)[C@H](O)CO [D-arabitol]
14 | 138.64 ± 13 | OC[C@@H](O)[C@@H](O)CO [meso-1,2,3,4-butanetetrol]

Same assay, conditions: 260 K; 101.33 kPa; Crystal; relaxation calorimetry

Row | Structure (SMILES) | molar entropy [J/K/mol]
15 | OC[C@@H](O)[C@@H](O)[C@H](O)[C@H](O)CO [D-mannitol] | 197.43 ± 18
16 | OC[C@H](O)C(O)[C@@H](O)CO [L-(-)-arabitol] | 175.51 ± 16
17 | O[C@H]1[C@H](O)[C@@H](O)[C@H](O)[C@@H](O)[C@H]1O [cis-1,2,3,5-trans-4,6-cyclohexanehexol] | 170.3 ± 16

The next lines start with the values.

Row | molar entropy [J/K/mol] | Structure (SMILES)
18 | 173.89 ± 16 | OC[C@@H](O)C(O)[C@H](O)CO [D-arabitol]
19 | 144.24 ± 13 | OC[C@@H](O)[C@@H](O)CO [meso-1,2,3,4-butanetetrol]

Same assay, conditions: 270 K; 101.33 kPa; Crystal; relaxation calorimetry

Row | Structure (SMILES) | molar entropy [J/K/mol]
20 | OC[C@@H](O)[C@@H](O)[C@H](O)[C@H](O)CO [D-mannitol] | 205.2 ± 19
21 | OC[C@H](O)C(O)[C@@H](O)CO [L-(-)-arabitol] | 182.43 ± 17
22 | O[C@H]1[C@H](O)[C@@H](O)[C@H](O)[C@@H](O)[C@H]1O [cis-1,2,3,5-trans-4,6-cyclohexanehexol] | 177.58 ± 16

Continued, values first:

Row | molar entropy [J/K/mol] | Structure (SMILES)
23 | 180.69 ± 17 | OC[C@@H](O)C(O)[C@H](O)CO [D-arabitol]
24 | 149.82 ± 14 | OC[C@@H](O)[C@@H](O)CO [meso-1,2,3,4-butanetetrol]

Same assay, conditions: 273.15 K; 101.33 kPa; Crystal; relaxation calorimetry

Row | Structure (SMILES) | molar entropy [J/K/mol]
25 | OC[C@@H](O)[C@@H](O)[C@H](O)[C@H](O)CO [D-mannitol] | 207.65 ± 19
26 | OC[C@H](O)C(O)[C@@H](O)CO [L-(-)-arabitol] | 184.6 ± 17
27 | O[C@H]1[C@H](O)[C@@H](O)[C@H](O)[C@@H](O)[C@H]1O [cis-1,2,3,5-trans-4,6-cyclohexanehexol] | 179.88 ± 17

Second part, the molecule after the results:

Row | molar entropy [J/K/mol] | Structure (SMILES)
28 | 182.82 ± 17 | OC[C@@H](O)C(O)[C@H](O)CO [D-arabitol]
29 | 151.57 ± 14 | OC[C@@H](O)[C@@H](O)CO [meso-1,2,3,4-butanetetrol]

Same assay, conditions: 280 K; 101.33 kPa; Crystal; relaxation calorimetry

Row | Structure (SMILES) | molar entropy [J/K/mol]
30 | OC[C@@H](O)[C@@H](O)[C@H](O)[C@H](O)CO [D-mannitol] | 212.96 ± 20
31 | OC[C@H](O)C(O)[C@@H](O)CO [L-(-)-arabitol] | 189.34 ± 17
32 | O[C@H]1[C@H](O)[C@@H](O)[C@H](O)[C@@H](O)[C@H]1O [cis-1,2,3,5-trans-4,6-cyclohexanehexol] | 184.87 ± 17

Continued, values first:

Row | molar entropy [J/K/mol] | Structure (SMILES)
33 | 187.46 ± 17 | OC[C@@H](O)C(O)[C@H](O)CO [D-arabitol]
34 | 155.38 ± 14 | OC[C@@H](O)[C@@H](O)CO [meso-1,2,3,4-butanetetrol]

Same assay, conditions: 290 K; 101.33 kPa; Crystal; relaxation calorimetry

Row | Structure (SMILES) | molar entropy [J/K/mol]
35 | OC[C@@H](O)[C@@H](O)[C@H](O)[C@H](O)CO [D-mannitol] | 220.71 ± 20
36 | OC[C@H](O)C(O)[C@@H](O)CO [L-(-)-arabitol] | 196.25 ± 18
37 | O[C@H]1[C@H](O)[C@@H](O)[C@H](O)[C@@H](O)[C@H]1O [cis-1,2,3,5-trans-4,6-cyclohexanehexol] | 192.17 ± 18

Further lines, results first:

Row | molar entropy [J/K/mol] | Structure (SMILES)
38 | 194.23 ± 18 | OC[C@@H](O)C(O)[C@H](O)CO [D-arabitol]
39 | 160.92 ± 15 | OC[C@@H](O)[C@@H](O)CO [meso-1,2,3,4-butanetetrol]

Same assay, conditions: 298.15 K; 101.33 kPa; Crystal; relaxation calorimetry

Row | Structure (SMILES) | molar entropy [J/K/mol]
40 | OC[C@@H](O)[C@@H](O)[C@H](O)[C@H](O)CO [D-mannitol] | 227.01 ± 21
41 | OC[C@H](O)C(O)[C@@H](O)CO [L-(-)-arabitol] | 201.89 ± 19
42 | O[C@H]1[C@H](O)[C@@H](O)[C@H](O)[C@@H](O)[C@H]1O [cis-1,2,3,5-trans-4,6-cyclohexanehexol] | 198.12 ± 18

Other lines, results leading:

Row | molar entropy [J/K/mol] | Structure (SMILES)
43 | 199.73 ± 18 | OC[C@@H](O)C(O)[C@H](O)CO [D-arabitol]
44 | 165.43 ± 15 | OC[C@@H](O)[C@@H](O)CO [meso-1,2,3,4-butanetetrol]

Same assay, conditions: 300 K; 101.33 kPa; Crystal; relaxation calorimetry

Row | Structure (SMILES) | molar entropy [J/K/mol]
45 | OC[C@@H](O)[C@@H](O)[C@H](O)[C@H](O)CO [D-mannitol] | 228.44 ± 21
46 | OC[C@H](O)C(O)[C@@H](O)CO [L-(-)-arabitol] | 203.17 ± 19
47 | O[C@H]1[C@H](O)[C@@H](O)[C@H](O)[C@@H](O)[C@H]1O [cis-1,2,3,5-trans-4,6-cyclohexanehexol] | 199.48 ± 18

The remaining lines, values ahead:

Row | molar entropy [J/K/mol] | Structure (SMILES)
48 | 200.98 ± 18 | OC[C@@H](O)C(O)[C@H](O)CO [D-arabitol]
49 | 166.46 ± 15 | OC[C@@H](O)[C@@H](O)CO [meso-1,2,3,4-butanetetrol]

Same assay, conditions: 305 K; 101.33 kPa; Crystal; Small sample (50 mg) DSC

Row | molar entropy [J/K/mol] | Structure (SMILES)
50 | 204.36 ± 25 | OC[C@@H](O)C(O)[C@H](O)CO [D-arabitol]
